Measurements from patent US20250129048A1, “MELANOCORTIN 4 RECEPTOR ANTAGONISTS AND USES THEREOF” (Pfizer Inc., priority 2021, published 2025).

Target: hMC4R (Homo sapiens (Human), UniProt P32245)
Assay: In vitro binding affinity assay using hMC4R (radioligand competition binding, CHO cell membranes)
Conditions: competition with [125I]-(Nle4, D-Phe7)-α-MSH 0.5 nM; Ki from IC50 by Cheng-Prusoff; read-out: Ki (nM) geometric mean
Protocol: The binding affinity of test compounds at the α-melanocyte-stimulating hormone receptor (hMC4R) was assessed using a radioligand competition binding assay. Recombinant Chinese hamster ovaries (CHO) cells stably expressing hMC4R (PerkinElmer #ES-191-C) were used for competitive binding. hMC4R membranes were grown in Dulbecco's Modified Essential Medium and Ham's F-12 Medium (DMEM/F12), 10% heat inactivated fetal bovine serum (FBS), 0.4 mg/mL Geneticin and 2 mM L-glutamine. Cell membranes were bulked and frozen until the assay was performed.
Compounds were solubilized in 100% dimethyl sulfoxide (DMSO) to a concentration of 30 mM. A 10-point intermediate dilution series using half log dilutions was created in 100% DMSO with a top concentration of 0.03 mM. The serially diluted compounds were spotted as 1 μL/well, in 96-well Costar 3363 plates. The final compound range in the assay was 300 nM to 0.01 nM with a final DMSO concentration of 1%. Control wells, containing 1 μL of 2 mM ([…]) alpha-melanocyte stimulating hormone (α-MSH-Tocris #2584) was added to the non-specific binding wells and 1 μL 100% DMSO for the total binding control wells. This was followed by the addition of 80 μL of assay buffer [25 mM HEPES, 5 mM MgCl2, 2.5 mM CaCl2, 150 mM NaCl, Complete EDTA-free Protease Inhibitor Tablet (Thermo Scientific #11873580001) and 0.25% BSA]. […] The exact concentration of radioligand used for each experiment was determined by liquid scintillation counting and adjusted if necessary.
Frozen hMC4R cell membranes were thawed and Dounce homogenized. Homogenates were resuspended in assay buffer to a concentration of 2 μg per well. […] The plates were incubated for 2 hours at room temperature. Assay samples were then rapidly filtered through Unifilter-96 GF/B PEI coated filter plates using a filter plate harvester (PerkinElmer) and rinsed with ice-cold wash buffer [25 mM (4-(2-hydroxyethyl)-1-piperazineethanesulfonic acid (HEPES), 1 mM MgCl2, 2.5 mM CaCl2, and 500 mM NaCl]. Filter plates were dried overnight at room temperature. Plates were then bottom-sealed prior to the addition of 50 μL/well Ultima Gold XR scintillation fluid (PerkinElmer 6013111). Plates were then top-sealed, incubated for 60 minutes at room temperature and then the amount of radioactivity present was determined by liquid scintillation counting on a Microbeta Trilux (PerkinElmer #2450-0060).
The raw data (expressed as counts per minute) were analyzed using ActivityBase (IDBS Data Management Software). […] Equilibrium dissociation constant for inhibitor of ligand and receptor interaction (Ki) values were then calculated from the IC50 values using the Cheng-Prusoff equation: Ki=IC50/(1+([L]/Kd)), where [L] is the concentration of the radioligand used in the experiment and Kd is the affinity of the radioligand (determined in separate saturation experiments).

Sequence of hMC4R (P32245 whole entry): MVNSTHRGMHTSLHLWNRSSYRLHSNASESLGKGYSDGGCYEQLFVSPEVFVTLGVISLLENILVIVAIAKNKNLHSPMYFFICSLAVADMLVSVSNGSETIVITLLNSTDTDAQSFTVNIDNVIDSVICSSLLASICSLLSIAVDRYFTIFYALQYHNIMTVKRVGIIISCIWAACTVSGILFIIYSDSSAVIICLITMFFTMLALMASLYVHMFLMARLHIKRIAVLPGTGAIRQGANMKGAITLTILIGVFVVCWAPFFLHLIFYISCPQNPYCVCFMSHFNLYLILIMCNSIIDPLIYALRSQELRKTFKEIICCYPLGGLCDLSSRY

SMILES | Ki
COc1cccc([C@@H](C)C(=O)N2CC[C@H](Nc3ccc(-c4cn(C)c(C(C)(F)F)n4)c(C)n3)C2)c1 (single isomer, unassigned) [Example 14A] | 530 nM
Cc1ccccc1[C@@H](C)C(=O)N1CC[C@H](Nc2ccc(-c3cn(C)c(C(C)(F)F)n3)c(C)n2)C1 (single isomer, unassigned) [Example 15A] | 150 nM
Cc1ccccc1[C@@H](C)C(=O)N1CC[C@H](Nc2ccc(-c3cn(C)c(C(C)(F)F)n3)c(C)n2)C1 (single isomer, unassigned) [Example 15B] | 0.83 nM
COc1cc([C@@H](C)C(=O)N2CC[C@H](Nc3ccc(-c4cn(C)c(C(C)(F)F)n4)c(C)n3)C2)c(C)cn1 (single isomer, unassigned) [Example 16A] | > 220 nM
COc1ccc(C)c([C@@H](C)C(=O)N2CC[C@H](Nc3ccc(-c4cn(C)cn4)c(C)n3)C2)c1 (single isomer, unassigned) [Example 20A] | 1100 nM
COc1cc([C@@H](C)C(=O)N2CC[C@H](Nc3ccc(-c4nc(C(F)(F)F)n(C)n4)c(C)n3)C2)c(Cl)cn1 (single isomer, unassigned) [Example 25A] | 88 nM
COc1cc([C@@H](C)C(=O)N2CC[C@H](Nc3ccc(-c4nc(C(F)F)n(C)n4)c(C)n3)C2)ccn1 (single isomer, unassigned) [Example 33A] | 1100 nM
COc1cc([C@@H](C)C(=O)N2CC[C@H](Nc3ccc(-c4nc(C(C)(F)F)n(C)n4)c(C)n3)C2)c(Cl)cn1 (single isomer, unassigned) [Example 37A] | 150 nM
COc1cc([C@@H](C)C(=O)N2CC[C@H](Nc3ccc(-c4cn(C)c(C(F)F)n4)c(C)n3)C2)c(F)cn1 (single isomer, unassigned) [Example 38A] | 62 nM
Cc1nc(N[C@@H]2CCN(C(=O)Cc3ccc(F)cc3)C2(C)C)ccc1-c1cn(C)cn1 [Example 3A, 1-[(3R)-2,2-dimethyl-3-{[6-methyl-5-(1-methyl-1H-imidazol-4-yl)pyridin-2-yl]amino}pyrrolidin-1-yl]-2-(4-fluorophenyl)ethan-1-one] | 520 nM
Cc1nc(N[C@H]2CCN(C(=O)Cc3ccc(OC(F)(F)F)cc3)C2)ccc1-c1cn(C)c(C(F)F)n1 [Example 9, 1-[(3S)-3-({5-[2-(difluoromethyl)-1-methyl-1H-imidazol-4-yl]-6-methylpyridin-2-yl}amino)pyrrolidin-1-yl]-2-[4-(trifluoromethoxy)phenyl]ethan-1-one] | 0.46 nM
Cc1nc(N[C@H]2CCN(C(=O)Cc3ccc(F)c(F)c3)C2)ccc1-c1cn(C)c(C(F)F)n1 [Example 10, 1-[(3S)-3-({5-[2-(difluoromethyl)-1-methyl-1H-imidazol-4-yl]-6-methylpyridin-2-yl}amino)pyrrolidin-1-yl]-2-(3,4-difluorophenyl)ethan-1-one] | 0.31 nM
Cc1nc(N[C@H]2CCN(C(=O)[C@H](C)c3ccccc3)C2)ccc1-c1cn(C)c(C(F)F)n1 [Example 11, (2R)-1-[(3S)-3-({5-[2-(difluoromethyl)-1-methyl-1H-imidazol-4-yl]-6-methylpyridin-2-yl}amino)pyrrolidin-1-yl]-2-phenylpropan-1-one] | 1.1 nM
Cc1nc(N[C@H]2CCN(C(=O)C(F)(F)c3ccc(Cl)cc3)C2)ccc1-c1cn(C)c(C(F)F)n1 [Example 23, 2-(4-chlorophenyl)-1-[(3S)-3-({5-[2-(difluoromethyl)-1-methyl-1H-imidazol-4-yl]-6-methylpyridin-2-yl}amino)pyrrolidin-1-yl]-2,2-difluoroethan-1-one] | 1.1 nM
Cc1nc(N[C@H]2CCN(C(=O)Cc3ccc(F)cc3)C2)ccc1-c1nc2n(n1)CC(F)(F)CO2 [Example 29, 1-[(3S)-3-{[5-(6,6-difluoro-6,7-dihydro-5H-[1,2,4]triazolo[5,1-b][1,3]oxazin-2-yl)-6-methylpyridin-2-yl]amino}pyrrolidin-1-yl]-2-(4-fluorophenyl)ethan-1-one] | 6.9 nM
COc1cc(CC(=O)N2CC[C@H](Nc3ccc(-c4cn(C)cn4)c(C)n3)C2)ccc1C [Example 31, 2-(3-methoxy-4-methylphenyl)-1-[(3S)-3-{[6-methyl-5-(1-methyl-1H-imidazol-4-yl)pyridin-2-yl]amino}pyrrolidin-1-yl]ethan-1-one] | 1 nM
Cc1nc(N[C@H]2CCN(C(=O)C(F)(F)c3ccc(Cl)c(Cl)c3)C2)ccc1-c1cn(C)c(C(F)F)n1 [Example 34, 2-(3,4-dichlorophenyl)-1-[(3S)-3-({5-[2-(difluoromethyl)-1-methyl-1H-imidazol-4-yl]-6-methylpyridin-2-yl}amino)pyrrolidin-1-yl]-2,2-difluoroethan-1-one] | 0.88 nM
Cc1nc(N[C@H]2CCN(C(=O)C3(c4ccccc4)CC3(F)F)C2)ccc1-c1cn(C)cn1 (stereo partly drawn) [Example 35, (2,2-difluoro-1-phenylcyclopropyl)[(3S)-3-{[6-methyl-5-(1-methyl-1H-imidazol-4-yl)pyridin-2-yl]amino}pyrrolidin-1-yl]methanone] | 0.95 nM

Further lines, results first:

Ki | SMILES
7.7 nM | COc1cc([C@@H](C)C(=O)N2CC[C@H](Nc3ccc(-c4cn(C)c(C(F)F)n4)c(C)n3)C2)cc(OC)n1 (single isomer, unassigned) [Example 12B]
190 nM | COc1cc([C@@H](C)C(=O)N2CC[C@H](Nc3ccc(-c4cn(C)c(C(C)(F)F)n4)c(C)n3)C2)c(F)cn1 (single isomer, unassigned) [Example 21A]
20 nM | COc1cc([C@@H](C)C(=O)N2CC[C@H](Nc3ccc(-c4nc(C(F)F)n(C)n4)c(C)n3)C2)c(Cl)cn1 (single isomer, unassigned) [Example 24A]
4.3 nM | COc1cc([C@](C)(F)C(=O)N2CC[C@H](Nc3ccc(-c4cn(C)c(C(F)F)n4)c(C)n3)C2)ccn1 (single isomer, unassigned) [Example 36B]
54 nM | COc1cc(OC(F)F)cc([C@@H](C)C(=O)N2CC[C@H](Nc3ccc(-c4nc(C(C)(F)F)n(C)n4)c(C)n3)C2)c1 (single isomer, unassigned) [Example 40A]
240 nM | COc1cc([C@@H](C)C(=O)N2CC[C@H](Nc3ccc(-c4nc(C(F)F)n(C)n4)c(C)n3)C2)nc(C)n1 (single isomer, unassigned) [Example 41A]
950 nM | Cc1nc(N[C@H]2CCN(C(=O)Cc3ccc(F)cc3)C2)ccc1-c1noc(C(F)(F)F)n1 [Example 27, 2-(4-fluorophenyl)-1-[(3S)-3-({6-methyl-5-[5-(trifluoromethyl)-1,2,4-oxadiazol-3-yl]pyridin-2-yl}amino)pyrrolidin-1-yl]ethan-1-one]
5.5 nM | Cc1nc(N[C@H]2CCN(C(=O)Cc3ccc(F)cc3)C2)ccc1-c1cc(C)n(C)n1 [Example 32, 1-[(3S)-3-{[5-(1,5-dimethyl-1H-pyrazol-3-yl)-6-methylpyridin-2-yl]amino}pyrrolidin-1-yl]-2-(4-fluorophenyl)ethan-1-one]
